Active and inactive are the calls of the source. The calls are words filed in the database; no cut-off is given here.
How the values were obtained:
GM15850 [1] = experiment: Inhibition of ATP production in human GM15850 cells after 24 hrs by Vialight reagent based luminescence assay; type: functional, cell-based
GM16216 [2] = experiment: Inhibition of ATP production in human GM16216 cells after 24 hrs by Vialight reagent based luminescence assay; type: functional, cell-based
GM15850 [3] = experiment: Effect on ATP production in human GM15850 cells at 0.1 uM after 24 hrs by Vialight reagent based luminescence assay; type: functional, cell-based
GM15850 [4] = experiment: Effect on mitochondrial membrane potential in human GM15850 cells assessed as loss of mitochondrial membrane potential at 0.25 uM after 16 hrs by JC1 staining based flow cytometry (reference value: 13%); type: functional
GM15850 [5] = experiment: Cytotoxicity against human GM15850 cells at 2.5 uM after 48 hrs by live/dead staining-based flow cytometry; type: cell-based; settings: gm15850, 48 h
GM16216 [6] = experiment: Cytoprotection against DEM-induced toxicity in human GM16216 cells assessed as increase in cell viability pretreated for 16 hrs followed by DEM addition and measured after 5 hrs by live/dead staining based flow cytometry; type: functional
GM16216 [7] = experiment: Cytotoxicity against human GM16216 cells at 2.5 uM after 48 hrs by live/dead staining-based flow cytometry; type: cell-based; settings: gm16216, 48 h
GM16216 [8] = experiment: Effect on ATP production in human GM16216 cells at 0.1 uM after 24 hrs by Vialight reagent based luminescence assay; type: functional, cell-based
GM15850 [9] = experiment: Effect on mitochondrial membrane potential in human GM15850 cells assessed as intact mitochondrial membrane at 0.25 uM after 16 hrs by JC1 staining based flow cytometry (reference value: 87%); type: functional
GM16216 [10] = experiment: Effect on mitochondrial membrane potential in human GM16216 cells assessed as loss of mitochondrial membrane potential at 0.25 uM after 16 hrs by JC1 staining based flow cytometry (reference value: 13%); type: functional
GM15850 [11] = experiment: Cytoprotection against DEM-induced toxicity in human GM15850 cells assessed as increase in cell viability pretreated for 16 hrs followed by DEM addition and measured after 5 hrs by live/dead staining based flow cytometry; type: functional
GM16216 [12] = experiment: Effect on mitochondrial membrane potential in human GM16216 cells assessed as intact mitochondrial membrane at 0.25 uM after 16 hrs by JC1 staining based flow cytometry (reference value: 87%); type: functional
GM16216 [13] = experiment: Increase in ATP production in human GM16216 cells at 0.1 to 0.5 uM after 24 hrs by Vialight reagent based luminescence assay; type: functional, cell-based
GM16216 [14] = experiment: Effect on frataxin expression in human GM16216 cells at 50 nM after 24 hrs by ELISA relative to control; type: functional
GM15850 [15] = experiment: Effect on frataxin expression in human GM15850 cells at 250 nM after 24 hrs by ELISA relative to control; type: functional
GM15850 [16] = experiment: Inhibition of ATP production in human GM15850 cells at 2.5 uM after 24 hrs by Vialight reagent based luminescence assay; type: functional, cell-based
GM15850 [17] = experiment: Restoration of total aconitase activity in human GM15850 cells at 250 nM after 5 days by colorimetric method relative to control; type: functional
GM16216 [18] = experiment: Induction of mitochondrial biogenesis in human GM16216 cells assessed as increase in ratio of COX1 to SDH-A protein levels at 50 to 250 nM after 24 to 48 hrs by ELISA; type: functional, cell-based
GM15850 [19] = experiment: Effect on frataxin expression in human GM15850 cells at 50 nM after 48 hrs by ELISA relative to control; type: functional
GM16216 [20] = experiment: Effect on frataxin expression in human GM16216 cells at 250 nM after 48 hrs by ELISA relative to control; type: functional
GM15850 [21] = experiment: Restoration of total aconitase activity in human GM15850 cells after 5 days by colorimetric method; type: functional, cell-based
GM15850 [22] = experiment: Induction of mitochondrial biogenesis in human GM15850 cells assessed as ratio of COX1 to SDH-A protein levels at 50 after 48 hrs by ELISA relative to control; type: functional
GM16216 [23] = experiment: Restoration of total aconitase activity in human GM16216 cells at 250 nM after 5 days by colorimetric method relative to control; type: functional
GM16216 [24] = experiment: Induction of mitochondrial biogenesis in human GM16216 cells assessed as ratio of COX1 to SDH-A protein levels at 50 after 24 hrs by ELISA relative to control; type: functional
GM16216 [25] = experiment: Inhibition of ATP production in human GM16216 cells at 2.5 uM after 24 hrs by Vialight reagent based luminescence assay; type: functional, cell-based
GM15850 [26] = experiment: Induction of mitochondrial biogenesis in human GM15850 cells assessed as ratio of COX1 to SDH-A protein levels at 250 after 48 hrs by ELISA relative to control; type: functional
GM15850 [27] = experiment: Induction of mitochondrial biogenesis in human GM15850 cells assessed as ratio of COX1 to SDH-A protein levels at 250 after 24 hrs by ELISA relative to control; type: functional
GM15850 [28] = experiment: Cytotoxicity against human GM15850 cells at 0.25 to 2.5 uM after 24 to 48 hrs by live/dead staining-based flow cytometry; type: cell-based; settings: gm15850, 2.5 µM
GM15850 [29] = experiment: Induction of mitochondrial biogenesis in human GM15850 cells assessed as increase in ratio of COX1 to SDH-A protein levels at 50 to 250 nM after 24 to 48 hrs by ELISA; type: functional, cell-based
GM16216 [30] = experiment: Effect on frataxin expression in human GM16216 cells at 250 nM after 24 hrs by ELISA relative to control; type: functional
GM16216 [31] = experiment: Effect on frataxin expression in human GM16216 cells at 50 nM after 48 hrs by ELISA relative to control; type: functional
GM16216 [32] = experiment: Induction of mitochondrial biogenesis in human GM16216 cells assessed as ratio of COX1 to SDH-A protein levels at 250 after 24 hrs by ELISA relative to control; type: functional
GM16216 [33] = experiment: Restoration of total aconitase activity in human GM16216 cells at 50 nM after 5 days by colorimetric method relative to control; type: functional
GM15850 [34] = experiment: Effect on frataxin expression in human GM15850 cells at 250 nM after 48 hrs by ELISA relative to control; type: functional
GM16216 [35] = experiment: Induction of mitochondrial biogenesis in human GM16216 cells assessed as ratio of COX1 to SDH-A protein levels at 50 after 48 hrs by ELISA relative to control; type: functional
GM15850 [36] = experiment: Effect on frataxin expression in human GM15850 cells at 50 nM after 24 hrs by ELISA relative to control; type: functional
GM15850 [37] = experiment: Increase in ATP production in human GM15850 cells at 0.1 to 0.5 uM after 24 hrs by Vialight reagent based luminescence assay; type: functional, cell-based
GM15850 [38] = experiment: Induction of mitochondrial biogenesis in human GM15850 cells assessed as ratio of COX1 to SDH-A protein levels at 50 after 24 hrs by ELISA relative to control; type: functional
GM16216 [39] = experiment: Increase in frataxin expression in human GM16216 cells at 50 to 250 nM after 24 to 48 hrs by ELISA; type: functional, cell-based
GM16216 [40] = experiment: Induction of mitochondrial biogenesis in human GM16216 cells assessed as ratio of COX1 to SDH-A protein levels at 250 after 48 hrs by ELISA relative to control; type: functional
GM15850 [41] = experiment: Increase in frataxin expression in human GM15850 cells at 50 to 250 nM after 24 to 48 hrs by ELISA; type: functional, cell-based
GM16216 [42] = experiment: Cytotoxicity against human GM16216 cells at 0.25 to 2.5 uM after 24 to 48 hrs by live/dead staining-based flow cytometry; type: cell-based; settings: gm16216, 2.5 µM
GM15850 [43] = experiment: Restoration of total aconitase activity in human GM15850 cells at 50 nM after 5 days by colorimetric method relative to control; type: functional

CCCCCc1cc2nc3ccc(N(C)C)cc3sc-2cc1=O
inhibition (GM15850 [1]): Dose-dependent effect | inhibition (GM16216 [2]): Dose-dependent effect | Activity (GM15850 [3]): inactive | Activity (GM15850 [4]): 16% | Activity (GM15850 [5]): Toxic | Activity (GM16216 [6]): Dose-dependent effect | Activity (GM16216 [7]): Toxic | Activity (GM16216 [8]): inactive | Activity (GM15850 [9]): 84% | Activity (GM16216 [10]): 16% | Activity (GM15850 [11]): Dose-dependent effect | Activity (GM16216 [12]): 84%

CCCCCCCCCCCCCCCCc1cc2nc3ccc(N(C)C)cc3sc-2cc1=O
Activity (GM16216 [13]): Active | Activity (GM16216 [14]): 120% | Activity (GM15850 [15]): 127% | inhibition (GM15850 [16]): Active | Activity (GM15850 [17]): 124% | Activity (GM16216 [18]): Active | Activity (GM15850 [19]): 124% | Activity (GM16216 [20]): 131% | Activity (GM15850 [21]): Dose-dependent effect | Activity (GM15850 [22]): 132% | Activity (GM16216 [23]): 124% | Activity (GM16216 [24]): 127% | inhibition (GM16216 [25]): Active | Activity (GM15850 [26]): 139% | Activity (GM15850 [27]): 132% | Activity (GM15850 [28]): Non-Toxic | Activity (GM15850 [29]): Active | Activity (GM15850 [4]): 12% | Activity (GM16216 [6]): Dose-dependent effect | Activity (GM16216 [30]): 127% | Activity (GM16216 [31]): 124% | Activity (GM16216 [32]): 132% | Activity (GM16216 [33]): 121% | Activity (GM15850 [34]): 131% | Activity (GM16216 [35]): 132% | Activity (GM15850 [36]): 120% | Activity (GM15850 [37]): Active | Activity (GM15850 [38]): 127% | Activity (GM16216 [39]): Active | Activity (GM16216 [40]): 139% | Activity (GM15850 [9]): 88% | Activity (GM15850 [41]): Active | Activity (GM16216 [42]): Non-Toxic | Activity (GM16216 [10]): 12% | Activity (GM15850 [11]): Dose-dependent effect | Activity (GM15850 [43]): 121% | Activity (GM16216 [12]): 88%

— ChEMBL document CHEMBL4257548, “Phenothiazine antioxidants increase mitochondrial biogenesis and frataxin levels in Friedreich's ataxia cells” (Medchemcomm, 2018)
